From US20090054316A1, “AGENT FOR CONTROL OF FUNCTION OF ANTIGEN-PRESENTING CELL” (RIKEN, priority 2005, published 2009)

Legend:
dendritic cell = assay: Dendritic cell activation or inactivation, same in vitro system as Examples 1 and 2; type: cell-based, mouse; details: treatment with 1-10 μM
Method: (§1) Bone marrow cells were obtained from a C57BL/6 mouse (obtained from Clea Japan) and subjected to cell culture using an RPMI medium (SIGMA, R8758) supplemented with 10% FCS (EQUITECH-BIO Inc., #SFB-30-1388) and granulocyte macrophage colony stimulating factor (GM-CSF) in a 5% CO2 environment at 37° C. for 6 days to induce the differentiation of bone marrow-derived dendritic cells (BMDC). To this BMDC, TPEN (SIGMA, P4413) was added for 6 hours to 12 hours to obtain concentrations of 0-2 μM in the medium. Also prepared was a group in which lipopolysaccharide (LPS; 100 ng/mL; SIGMA, L2637, E. Coli O55:B5) was added for control of antigen-presenting cell activation. […] When the cells were treated with the zinc ion chelator, the expression of MHC class II molecule on BMDC was enhanced as with LPS.
In the same experiment (in vitro system) as Examples 1 and 2, dendritic cell activation or inactivation was observed by a treatment with 1-10 μM zinc ion or TPEN.

[1] = system: bone marrow-derived dendritic cells (BMDC); assay: Expression of MHC class I, class II and CD86 molecules on the cell surface of dendritic cells treated with a zinc ion chelator (FACS); type: cell-based, mouse; details: for expression of MHC class II molecule on BMDC: TPEN 0-2 μM for 6 to 12 hours (dose and treatment time dependency), LPS 100 ng/mL as activation control, FACS
Method: Dendritic cells, a type of antigen-presenting cells, were treated with N,N,N′,N′-tetrakis(2-pyridylmethyl)ethylenediamine (TPEN), a zinc ion chelator, and examined for the expression of MHC class I molecule, class II molecule and CD86 molecule on the cell surface.
as §1

[2] = dendritic cells treated with zinc ion chelator, FIG. 1

| Compound | dendritic cell activation or inactivation (dendritic cell) | expression of MHC class II molecule on BMDC [1] | expression of CD86 molecule on the cell surface [1, 2] | expression of MHC class I molecule on the cell surface [1, 2] |
| --- | --- | --- | --- | --- |
| c1ccc(CN(CCN(Cc2ccccn2)Cc2ccccn2)Cc2ccccn2)nc1 [TPEN, N,N,N′,N′-tetrakis(2-pyridylmethyl)ethylenediamine] | observed | enhanced | enhanced | enhanced |
| O=S(=O)([O-])[O-].[Zn+2] [zinc ion, ZnSO4] | observed |  |  |  |
| lipopolysaccharide [LPS] |  | enhanced |  |  |
